Experimental findings from paper PMC8950151, “Synthesis and Evaluation of the Antifungal and Toxicological Activity of Nitrofuran Derivatives” (Pharmaceutics, 2022) are described below.

Broadly, the IC50 is the concentration needed to halve the response being measured.

Series [1] concerns C. krusei (ATCC 6258). In words: Susceptibility test (CLSI M27-A3 broth microdilution, resazurin readout), MIC90. Type of series: cell-based, Candida krusei. Particulars: Pichia kudriavzevii. (In general: Dilution methods test growth across graded concentrations, often in twofold steps.)
The test system of series [2] is Histoplasma capsulatum (G217-B/ATCC 26032). In words: microbe, parasite or virus in culture. Particulars: ATCC26032, 144 h. Type of series: cell-based.
In series [3] the test system is Cryptococcus neoformans (H99/ATCC 208821). In words: Susceptibility test (CLSI M27-A3 broth microdilution, resazurin readout), MIC90. Format: cell-based.
The test system of series [4] is C. krusei (ATCC 6258). In words: Minimum fungicidal concentration (MFC). The note with it: Pichia kudriavzevii, ATCC6258. Type of series: cell-based, Candida krusei.
Series [5] relates to Trichophyton mentagrophytes (ATCC 11481). In words: Minimum fungicidal concentration (MFC). The note with it: Trichophyton mentagrophytes, ATCC11481; T. mentagrophytes. Type of series: cell-based.
For series [6], the system named is Paracoccidioides brasiliensis (Pb 18). In words: microbe, parasite or virus in culture. Format: cell-based. The note with it: Paracoccidioides brasiliensis.
Series [7] concerns A549 (ATCC CCL-185) lung epithelial cell line. In words: Cytotoxicity assay in monolayer by resazurin colorimetric method. Particulars: Homo sapiens, A549 cells, 72 h. Type of series: cell-based. For orientation: Resazurin is reduced to fluorescent resorufin, in cell work by metabolically active cells.
The subject of series [8] is Histoplasma capsulatum (G217-B/ATCC 26032). In words: microbe, parasite or virus in culture. Format: cell-based. Particulars: ATCC26032.
In series [9] the test system is Trichophyton mentagrophytes (ATCC 11481). In words: Susceptibility assay for dermatophytes (CLSI M38-A2, resazurin), MIC90. Type of series: cell-based. The note with it: Trichophyton mentagrophytes, ATCC11481, 96 h, T. mentagrophytes, 35 °C, read-out: MIC90.
The subject of series [10] is Candida albicans (ATCC 90028). In words: Minimum fungicidal concentration (MFC). Format: cell-based. Particulars: ATCC90028, C. albicans.
For series [11], the system named is T. rubrum (ATCC 28289). In words: Minimum fungicidal concentration (MFC). The note with it: Trichophyton rubrum, ATCC28289. Type of series: cell-based, Trichophyton rubrum.
For series [12], the system named is C. glabrata (ATCC 90030). In words: Minimum fungicidal concentration (MFC). Particulars: Nakaseomyces glabratus, ATCC90030. Type of series: cell-based, Candida glabrata.
Series [13] relates to Cryptococcus neoformans (H99/ATCC 208821). In words: Minimum fungicidal concentration (MFC). Format: cell-based. Particulars: ATCC208821, C. neoformans.
The subject of series [14] is T. rubrum (ATCC 28289). In words: Susceptibility assay for dermatophytes (CLSI M38-A2, resazurin), MIC90. Format: cell-based. Particulars: Trichophyton rubrum, ATCC28289, 96 h, 35 °C.
The nature of another series: in vitro. The note with it: human.
Series [15] relates to Candida albicans (ATCC 90028). In words: Susceptibility test (CLSI M27-A3 broth microdilution, resazurin readout), MIC90. Type of series: cell-based. The note with it: ATCC90028, C. albicans, 24 h, 37 °C.
Series [16] has as its system C. glabrata (ATCC 90030). Described as above. Format: cell-based, Candida glabrata. The note with it: Nakaseomyces glabratus, ATCC90030, 24 h, 37 °C.

Molecules are shown by their SMILES. ≈ marks a conversion by molar mass, not a printed value. Like-named read-outs stand apart in the source and are kept apart here.

As to `C[C@@H]1[C@H](O)[C@@H](C)/C=C/C=C/C=C/C=C/C=C/C=C/C=C/[C@H](O[C@@H]2O[C@H](C)[C@@H](O)[C@H](N)[C@@H]2O)C[C@@H]2O[C@](O)(C[C@@H](O)C[C@@H](O)[C@H](O)CC[C@@H](O)C[C@@H](O)CC(=O)O[C@H]1C)C[C@H](O)[C@H]2C(=O)O` [AmB, amphotericin B, reference compound], the MIC90 with C. krusei (ATCC 6258) [1] (ATCC6258, C. krusei, 24 h, 37 °C, read-out: MIC90) came out at 1 µg/mL (≈ 1.08 µM); in [2], 0.03 µg/mL (≈ 0.0325 µM); in [3] (ATCC208821, C. neoformans, 48 h, 37 °C, read-out: MIC90), 0.06 µg/mL (≈ 0.0649 µM).

Take `O=C(/C=C/c1ccc([N+](=O)[O-])o1)c1ccc(Cl)cc1` [Compound 10]: the MFC is over 250 µg/mL with C. krusei (ATCC 6258) [4]; 7.81 µg/mL (≈ 28.1 µM) in [5]; 0.98 µg/mL (≈ 3.53 µM) in [6]; 15.6 µg/mL (≈ 56.3 µM) in [8]; over 250 µg/mL in [10]; 7.81 µg/mL (≈ 28.1 µM) in the series on T. rubrum (ATCC 28289) [11]. The MFC in the series with C. glabrata (ATCC 90030) [12] (C. glabrata, read-out: MFC) is over 250 µg/mL; in series [13], at least 250 µg/mL. The half-inhibitory concentration (IC50) in series [7] amounted to 38.7 µg/mL (≈ 139 µM); in the series “in vitro”, 215 µg/mL (≈ 776 µM). The MIC90 in [9] was 3.9 µg/mL (≈ 14 µM); in the series with C. krusei (ATCC 6258) [1] (ATCC6258, 24 h), over 250 µg/mL; in the series with T. rubrum (ATCC 28289) [14], 3.9 µg/mL (≈ 14 µM); in series [2], 7.81 µg/mL (≈ 28.1 µM); in series [15], 250 µg/mL (≈ 900 µM); in series [3] (ATCC208821, 48 h), 250 µg/mL (≈ 900 µM). The MIC90 in the series on C. glabrata (ATCC 90030) [16] was over 250 µg/mL.

Take `O=C(/C=C/c1ccc([N+](=O)[O-])o1)c1ccc(-n2ccnc2)cc1` [Compound 14]: the MFC in the series on C. krusei (ATCC 6258) [4] was 31.2 µg/mL (≈ 101 µM); in series [5], 1.95 µg/mL (≈ 6.3 µM); in series [6], 1.95 µg/mL (≈ 6.3 µM); in series [8], 7.81 µg/mL (≈ 25.3 µM); in [10], 62.5 µg/mL (≈ 202 µM); against T. rubrum (ATCC 28289) [11] it was 3.9 µg/mL (≈ 12.6 µM). For the same molecule, the MFC with C. glabrata (ATCC 90030) [12] was found to be 7.81 µg/mL (≈ 25.3 µM); in series [13], 3.9 µg/mL (≈ 12.6 µM). For the same molecule, the IC50 in series [7] stood at 33.4 µg/mL (≈ 108 µM); in the series “in vitro”, 26.8 µg/mL (≈ 86.7 µM). The MIC90 in [9] was 1.95 µg/mL (≈ 6.3 µM); in the series on C. krusei (ATCC 6258) [1] (ATCC6258, 24 h), 15.6 µg/mL (≈ 50.4 µM); against T. rubrum (ATCC 28289) [14], 1.95 µg/mL (≈ 6.3 µM); in series [2], 7.81 µg/mL (≈ 25.3 µM); in series [15], 15.6 µg/mL (≈ 50.4 µM); in [3] (ATCC208821, 48 h) it was 3.9 µg/mL (≈ 12.6 µM). This molecule registered an MIC90 in the series on C. glabrata (ATCC 90030) [16] of 7.81 µg/mL (≈ 25.3 µM).

Consider `CN(C)CCCNC(=O)c1ccc([N+](=O)[O-])o1` [Compound 6], for which the MFC in the series with C. krusei (ATCC 6258) [4] is over 250 µg/mL; in [5], over 250 µg/mL; in series [6], 31.2 µg/mL (≈ 130 µM); in series [8] it was over 250 µg/mL; in series [10], over 250 µg/mL; with T. rubrum (ATCC 28289) [11] it was over 250 µg/mL. Moreover, the MFC was over 250 µg/mL in the series with C. glabrata (ATCC 90030) [12] (C. glabrata, read-out: MFC) and 250 µg/mL (≈ 1040 µM) in series [13]. For the same molecule, the IC50 in series [7] turned out to be 13.2 µg/mL (≈ 54.8 µM); in “in vitro”, 15.6 µg/mL (≈ 64.7 µM). The MIC90 was over 250 µg/mL in [9]; over 250 µg/mL against C. krusei (ATCC 6258) [1] (ATCC6258, 24 h); over 250 µg/mL in the series on T. rubrum (ATCC 28289) [14]; over 250 µg/mL in [2]; over 250 µg/mL in series [15]; 250 µg/mL (≈ 1040 µM) in series [3] (ATCC208821, 48 h). For the same molecule, the MIC90 against C. glabrata (ATCC 90030) [16] is over 250 µg/mL.

Turning to `O=C(/C=C/c1ccc([N+](=O)[O-])o1)c1cc(F)c(Cl)cc1Cl` [Compound 17, (E)-1-(2,4-dichloro-5-fluorophenyl)-3-(5-nitrofuran-2-yl)prop-2-en-1-one], the MFC against C. krusei (ATCC 6258) [4] was over 250 µg/mL; in series [5], over 250 µg/mL; in [6] it was 3.9 µg/mL (≈ 11.8 µM); in series [8] it was over 250 µg/mL; in [10], over 250 µg/mL; in the series with T. rubrum (ATCC 28289) [11] it was over 250 µg/mL. For the same molecule, the MFC was over 250 µg/mL with C. glabrata (ATCC 90030) [12] (C. glabrata, read-out: MFC) and at least 250 µg/mL in series [13]. For the same molecule, the half-maximal inhibitory concentration (IC50) in [7] came to 68.2 µg/mL (≈ 207 µM); in the series “in vitro” it was 1.56 µg/mL (≈ 4.73 µM). Besides, the MIC90 was over 250 µg/mL in [9]; over 250 µg/mL against C. krusei (ATCC 6258) [1] (ATCC6258, 24 h); over 250 µg/mL in the series with T. rubrum (ATCC 28289) [14]; over 250 µg/mL in series [2]; over 250 µg/mL in series [15]; at least 250 µg/mL in series [3] (ATCC208821, 48 h). Besides, in the series with C. glabrata (ATCC 90030) [16], the MIC90 is over 250 µg/mL.
